From article PMC4794209, “Preformulation Studies on Piperlongumine” (PLoS ONE, 2016)

Key:
[1] = n-octanol/water partitioning study; assay type: physicochemical; conditions: room temperature, read-out: Partition coefficient (log P)
Description: Piperlongumine crystals were placed in a small glass bottle containing equal volumes of n-octanol and water. The bottle was shaken for 24 hours, after which time, the bottle was allowed to equilibrate without mixing for an additional 24 hours to ensure full separation between the n-octanol and water layers. A sample from each layer was carefully withdrawn and analyzed by HPLC.

[2] = Additional stability studies with antioxidants, chelator, hydrogen peroxide; assay type: physicochemical
Description: The addition of antioxidants such as ascorbic acid and sodium bisulfite and the chelator EDTA were evaluated with the drug at pH 3 (citrate buffer) and pH 7 (phosphate buffer). Samples in phosphate buffer were maintained at 26°C while the samples in citrate buffer were kept at 56°C. All three agents were used at a concentration of 0.05% w/v. Aliquots were withdrawn on a regular basis and pH and drug concentration were monitored. Piperlongumine stability was also examined after the addition of 1.5% w/v hydrogen peroxide in pH 3 citrate buffer at room temperature.

[3] = citrate, pH 3, 26°C, hydrogen peroxide 1.5% w/v
[4] = citrate, pH 3, 56°C, EDTA 0.05% w/v
[5] = citrate, pH 3, 56°C, ascorbic acid 0.05% w/v
[6] = citrate, pH 3, 56°C, no additional substance
[7] = citrate, pH 3, 56°C, sodium bisulfite 0.05% w/v
[8] = phosphate, pH 7, 26°C, EDTA 0.05% w/v
[9] = phosphate, pH 7, 26°C, ascorbic acid 0.05% w/v
[10] = phosphate, pH 7, 26°C, no additional substance
[11] = phosphate, pH 7, 26°C, sodium bisulfite 0.05% w/v

## COc1cc(/C=C/C(=O)N2CCC=CC2=O)cc(OC)c1OC [piperlongumine, 1-[(2E)-3-(3,4,5-trimethoxyphenyl)prop-2-enoyl]-1,2,5,6-tetrahydropyridin-2-one]
[1]
  logP at 24 h: 2.37 ± 0.12
[2]; addition of ascorbic acid and EDTA, pH 7 phosphate buffer, vs drug alone
  Effect on the stability profile: did not have a significant effect
[2]; addition of ascorbic acid, pH 3
  Effect on degradation: did not readily affect the degradation
[2]; addition of hydrogen peroxide (oxidizing agent)
  Effect on degradation: does significantly increase degradation
[2]; addition of sodium bisulfite, pH 3 citrate buffer, 56°C, vs drug alone
  Effect on degradation rate: did not affect the degradation rate
[2]; addition of sodium bisulfite, pH 7
  Time of degradation: within a few minutes
[2]; [3]
  T90: 0.3 weeks
  k values: 0.3369 weeks^-1
[2]; [4]
  T90: 0.3 weeks
  k values: 0.3266 weeks^-1
[2]; [5]
  T90: 0.3 weeks
  k values: 0.3706 weeks^-1
[2]; [6]
  T90: 0.3 weeks
  k values: 0.3107 weeks^-1
[2]; [7]
  T90: 0.3 weeks
  k values: 0.3860 weeks^-1
[2]; [8]
  T90: 1.9 weeks
  k values: 0.0559 weeks^-1
[2]; [9]
  T90: 2.3 weeks
  k values: 0.0459 weeks^-1
[2]; [10]
  T90: 2.1 weeks
  k values: 0.0494 weeks^-1
[2]; [11]
  T90: 0.0 weeks
  k values: 3069.8950 weeks^-1
